Patent publication US20120258980A1, “Antibacterial Agent for Drug-Resistant Bacteria, Method for Screening for Same, and Use of Same” (priority 2009, published 2012)
≈ marks a conversion by molar mass, not a printed value. Read-outs that look alike come from different tables or passages of the source.

Columns and labels:
[1] = test system: VISA clinical isolates of MRSA (VI-MRSA) and of MSSA (VI-MSSA); experiment: microbe, parasite or virus in culture; type: cell-based, Staphylococcus aureus
Outline: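 Strains were grown overnight at 37° C in TSB, adjusted in CAMHB to 0.3 absorbance at 578 nm and diluted 500-fold before equal-volume addition to compound dilutions.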

[2] = test system: VRSA clinical isolates; experiment: microbe, parasite or virus in culture; type: cell-based; conditions: Staphylococcus aureus
Description: (§1) Each of the bacterial strains listed in Table 1-1 was shake-cultured at 37° C. overnight in 4 mL of a medium (Tryptical Soy Broth: TSB, product of Becton Dickinson and Company). FDA209P was used as a control.
(§2) After completion of culturing, the resultant culture was suspended in a cation-adjusted Mueller Hinton Broth (CAMHB, product of Becton Dickinson and Company). Then, the obtained bacterial culture was adjusted in absorbance with the CAMHB so that the absorbance at 578 nm of the bacterial culture was adjusted to 0.3 measured by an absorption spectrometer. In addition, the resultant bacterial culture was 500-fold diluted with the CAMHB.
(§3) Each of the 500-fold diluted, pre-cultured bacterial cultures was added at 50 μL/well to the CAMHB containing the quinolones and the nybomycins at various concentrations (50 μL/well), followed by statically culturing at 37° C. overnight.
(§4) After completion of culturing, the growth of the bacteria was visually determined based on turbidity to measure MIC in each bacterial strain.
Here, the glycopeptides used were VCM and TEIC. The β-lactam used was OXA.

[3] = test system: methicillin-susceptible S. aureus (MSSA), MRSA and mutants thereof; experiment: MIC measurement, Test Example 3 (MSSA, MRSA and sequential gyrA/grlA quinolone-resistant mutants); type: cell-based, Staphylococcus aureus; conditions: Staphylococcus aureus
Text: That is, the first-step quinolone-resistant mutants are bacterial strains which are the same as their parent strains (clinical isolates) except that the genes shown in the corresponding parts of Table 1-1 are mutated. The second-step quinolone-resistant mutants are bacterial strains which are the same as the first-step quinolone-resistant mutants except that the genes shown in the corresponding parts of Table 1-1 are further mutated. The third-step quinolone-resistant mutants are bacterial strains which are the same as the second-step quinolone-resistant mutants except that the genes shown in the corresponding parts of Table 1-1 are further mutated. The fourth-step quinolone-resistant strain is a bacterial strain which is the same as the third-step quinolone-resistant mutant bacteria except that the gene shown in the corresponding part of Table 1-1 is further mutated.
as §1, §2, §3, §4

[4] = test system: MRSA, CA-MRSA and MSSA of Staphylococcus aureus; experiment: MIC measurement, Test Example 4 (MRSA, CA-MRSA and MSSA strains); type: cell-based; conditions: Staphylococcus aureus
Outline: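 S. aureus strains (FDA209P control) grown overnight in TSB at 37° C, resuspended in CAMHB, adjusted to A578 0.3 and diluted 500-fold. Equal volume added to CAMHB with serial compound concentrations, incubated statically overnight at 37° C. MIC read visually as lowest concentration without turbidity.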

C[C@@H]1CN(c2c(F)c(N)c3c(=O)c(C(=O)O)cn(C4CC4)c3c2F)C[C@H](C)N1 [SPFX, sparfloxacin]
MIC ([1]; Staphylococcus aureus, 99/3700-W, VI-MRSA, The United Kingdom): 16 µg/mL (≈ 40.8 µM) | MIC ([1]; Staphylococcus aureus, 99/3759-V, VI-MRSA, The United Kingdom): 16 µg/mL (≈ 40.8 µM) | MIC ([1]; Staphylococcus aureus, 28160, VI-MRSA, South African Republic): 32 µg/mL (≈ 81.5 µM) | MIC ([1]; Staphylococcus aureus, 98141, VI-MRSA, France): 16 µg/mL (≈ 40.8 µM) | MIC ([1]; Staphylococcus aureus, A7 (JCSC4842), VI-MRSA, Taiwan): 8 µg/mL (≈ 20.4 µM) | MIC ([1]; Staphylococcus aureus, AMC11094, VI-MRSA, Korea): 32 µg/mL (≈ 81.5 µM) | MIC ([1]; Staphylococcus aureus, B7 (JCSC4852), VI-MRSA, Taiwan): 8 µg/mL (≈ 20.4 µM) | MIC ([1]; Staphylococcus aureus, BR1, VI-MRSA, Brazil): 32 µg/mL (≈ 81.5 µM) | MIC ([1]; Staphylococcus aureus, BR2, VI-MRSA, Brazil): 32 µg/mL (≈ 81.5 µM) | MIC ([1]; Staphylococcus aureus, BR3, VI-MRSA, Brazil): 32 µg/mL (≈ 81.5 µM) | MIC ([1]; Staphylococcus aureus, BR4, VI-MRSA, Brazil): 16 µg/mL (≈ 40.8 µM) | MIC ([1]; Staphylococcus aureus, BR5, VI-MRSA, Brazil): 16 µg/mL (≈ 40.8 µM) | MIC ([1]; Staphylococcus aureus, HIP06297, VI-MRSA, America): 8 µg/mL (≈ 20.4 µM) | MIC ([1]; Staphylococcus aureus, HIP06854, VI-MRSA, America): 16 µg/mL (≈ 40.8 µM) | MIC ([1]; Staphylococcus aureus, HIP07920, VI-MRSA, America): 16 µg/mL (≈ 40.8 µM) | MIC ([1]; Staphylococcus aureus, HIP07930, VI-MRSA, America): 16 µg/mL (≈ 40.8 µM) | MIC ([1]; Staphylococcus aureus, HIP08926, VI-MRSA, America): 16 µg/mL (≈ 40.8 µM) | MIC ([1]; Staphylococcus aureus, HIP09143, VI-MRSA, America): 16 µg/mL (≈ 40.8 µM) | MIC ([1]; Staphylococcus aureus, HIP09313, VI-MRSA, America): 8 µg/mL (≈ 20.4 µM) | MIC ([1]; Staphylococcus aureus, HIP09433, VI-MRSA, America): 64 µg/mL (≈ 163 µM) | MIC ([1]; Staphylococcus aureus, HIP09662, VI-MRSA, America): 16 µg/mL (≈ 40.8 µM) | MIC ([1]; Staphylococcus aureus, HIP09735, VI-MRSA, America): 16 µg/mL (≈ 40.8 µM) | MIC ([1]; Staphylococcus aureus, HIP09737, VI-MSSA, America): 16 µg/mL (≈ 40.8 µM) | MIC ([1]; Staphylococcus aureus, HIP09740, VI-MRSA, America): 16 µg/mL (≈ 40.8 µM) | MIC ([1]; Staphylococcus aureus, HIP10267, VI-MRSA, America): 16 µg/mL (≈ 40.8 µM) | MIC ([1]; Staphylococcus aureus, HIP10540, VI-MRSA, America): 16 µg/mL (≈ 40.8 µM) | MIC ([1]; Staphylococcus aureus, HIP12864, VI-MRSA, America): 32 µg/mL (≈ 81.5 µM) | MIC ([1]; Staphylococcus aureus, HIP13036, VI-MRSA, America): 4 µg/mL (≈ 10.2 µM) | MIC ([1]; Staphylococcus aureus, HIP13057, VI-MRSA, America): 8 µg/mL (≈ 20.4 µM) | MIC ([1]; Staphylococcus aureus, IL (HIP7737), VI-MRSA, America): 32 µg/mL (≈ 81.5 µM) | MIC ([1]; Staphylococcus aureus, JCSC7193, VI-MRSA, Thailand): 16 µg/mL (≈ 40.8 µM) | MIC ([1]; Staphylococcus aureus, JCSC7195, VI-MRSA, Thailand): 32 µg/mL (≈ 81.5 µM) | MIC ([1]; Staphylococcus aureus, JCSC7203, VI-MRSA, Thailand): 16 µg/mL (≈ 40.8 µM) | MIC ([1]; Staphylococcus aureus, LIM2, VI-MRSA, France): 16 µg/mL (≈ 40.8 µM) | MIC ([1]; Staphylococcus aureus, LY-1999-01, VI-MSSA, Oman): 2 µg/mL (≈ 5.1 µM) | MIC ([1]; Staphylococcus aureus, LY-1999-03, VI-MRSA, Oman): 8 µg/mL (≈ 20.4 µM) | MIC ([1]; Staphylococcus aureus, MI (HIP5827), VI-MRSA, America): 32 µg/mL (≈ 81.5 µM) | MIC ([1]; Staphylococcus aureus, MRSA / MSSA / NRS 76 / VISA, NRS76, VI-MSSA, America): 32 µg/mL (≈ 81.5 µM) | MIC ([1]; Staphylococcus aureus, MRSA / MSSA / NRS 79 / VISA, NRS79, VI-MRSA, America): 16 µg/mL (≈ 40.8 µM) | MIC ([1]; Staphylococcus aureus, MRSA / MSSA / NRS 118 / VISA, NRS118, VI-MRSA, America): 32 µg/mL (≈ 81.5 µM) | MIC ([1]; Staphylococcus aureus, MRSA / MSSA / NRS 126 / VISA, NRS126, VI-MRSA, America): 8 µg/mL (≈ 20.4 µM) | MIC ([1]; Staphylococcus aureus, Mu3, VI-MRSA, Japan): 16 µg/mL (≈ 40.8 µM) | MIC ([1]; Staphylococcus aureus, Mu50, VI-MRSA, Japan): 16 µg/mL (≈ 40.8 µM) | MIC ([1]; Staphylococcus aureus, NJ (HIP5836), VI-MRSA, America): 32 µg/mL (≈ 81.5 µM) | MIC ([1]; Staphylococcus aureus, P1V44, VI-MSSA, Belgium): 4 µg/mL (≈ 10.2 µM) | MIC ([1]; Staphylococcus aureus, PC, VI-MRSA, America): 16 µg/mL (≈ 40.8 µM) | MIC ([1]; Staphylococcus aureus, SA MER-S6, VI-MSSA, France): 0.25 µg/mL (≈ 0.637 µM) | MIC ([1]; Staphylococcus aureus, SA MER-S12, VI-MSSA, France): 0.25 µg/mL (≈ 0.637 µM) | MIC ([1]; Staphylococcus aureus, SA MER-S20, VI-MSSA, France): 0.125 µg/mL (≈ 0.319 µM) | MIC ([2]; VRS1, VRSA, Michigan): 8 µg/mL (≈ 20.4 µM) | MIC ([2]; VRS2, VRSA, Pennsylvania): 8 µg/mL (≈ 20.4 µM) | MIC ([2]; VRS3, VRSA, New York): 16 µg/mL (≈ 40.8 µM) | MIC ([2]; VRS4, VRSA, New York): 16 µg/mL (≈ 40.8 µM) | MIC ([2]; VRS5, VRSA, Michigan): 128 µg/mL (≈ 326 µM) | MIC ([2]; VRS6, VRSA, Michigan): 16 µg/mL (≈ 40.8 µM) | MIC ([2]; VRS7, VRSA, Michigan): 16 µg/mL (≈ 40.8 µM) | MIC ([3]; FDA209P / MRSA / MSSA, FDA209P (MSSA), control, read-out: MIC): ≤ 0.063 µg/mL | MIC ([3]; MR5867 (MRSA), clinical isolate parent strain, no mutation): ≤ 0.063 µg/mL | MIC ([3]; MR5867-1, first-step quinolone-resistant mutant, grlA E84K): ≤ 0.063 µg/mL | MIC ([3]; MS5935 (MSSA), clinical isolate parent strain, no mutation, read-out: MIC): ≤ 0.063 µg/mL | MIC ([3]; MS5935-1, first-step quinolone-resistant mutant, grlA S80F): ≤ 0.063 µg/mL | MIC ([3]; MS5935-3, third-step mutant, further grlA E84K): 32 µg/mL (≈ 81.5 µM) | MIC ([3]; MS5952 (MSSA), clinical isolate parent strain, no mutation, read-out: MIC): ≤ 0.063 µg/mL | MIC ([4]; ATCC 29213 / MRSA / MSSA, ATCC 29213, MSSA): ≤ 0.063 µg/mL | MIC ([4]; COL, MRSA): 0.25 µg/mL (≈ 0.637 µM) | MIC ([4]; FDA209P / MRSA / MSSA, FDA209P, MSSA): ≤ 0.063 µg/mL | MIC ([4]; ISA12-1, MRSA): 0.125 µg/mL (≈ 0.319 µM) | MIC ([4]; ISA12-2, MRSA): 0.125 µg/mL (≈ 0.319 µM) | MIC ([4]; ISA35-1, MRSA): 0.125 µg/mL (≈ 0.319 µM) | MIC ([4]; ISA37-1, MSSA): 0.125 µg/mL (≈ 0.319 µM) | MIC ([4]; ISA49-1, MSSA): ≤ 0.063 µg/mL | MIC ([4]; ISA51-1, MSSA): 0.125 µg/mL (≈ 0.319 µM) | MIC ([4]; ISA56-3, MRSA): 0.125 µg/mL (≈ 0.319 µM) | MIC ([4]; ISA58-1, MRSA): 0.5 µg/mL (≈ 1.27 µM) | MIC ([4]; ISA62-1, MRSA): ≤ 0.063 µg/mL | MIC ([4]; ISA73-1, MSSA): ≤ 0.063 µg/mL | MIC ([4]; KBSA32, MRSA): ≤ 0.063 µg/mL | MIC ([4]; KBSA34, MRSA): 0.125 µg/mL (≈ 0.319 µM) | MIC ([4]; KBSA72, MRSA): 128 µg/mL (≈ 326 µM) | MIC ([4]; KBSA96, MRSA): 16 µg/mL (≈ 40.8 µM) | MIC ([4]; KBSA171, MRSA): 16 µg/mL (≈ 40.8 µM) | MIC ([4]; KSA24, MRSA): 16 µg/mL (≈ 40.8 µM) | MIC ([4]; KSA31, MRSA): 8 µg/mL (≈ 20.4 µM) | MIC ([4]; KSA36, MRSA): 128 µg/mL (≈ 326 µM) | MIC ([4]; MRSA / MSSA / NCTC 8325, NCTC 8325, MSSA): 0.125 µg/mL (≈ 0.319 µM) | MIC ([4]; MRSA / MSSA / USA300, USA300 FPR3757, CA-MRSA): 8 µg/mL (≈ 20.4 µM) | MIC ([4]; MW2, CA-MRSA): ≤ 0.063 µg/mL | MIC ([4]; N315, MRSA): ≤ 0.063 µg/mL
